Measurements reported in the supplement of paper PMC13380429.

Experiments:
Conditions in all cases: 72 h
[1] = test system: Vero E6; test: cell viability relative to DMSO; higher = less toxic
[2] = test system: Calu-3; test: as above
[3] = test system: Caco-2; test: as above
[4] = test system: U2OS; test: as above
[5] = test system: Vero E6; test: drug sensitivity score (DSS) for viability; higher = more toxic; extreme values may be limits of the assay
[6] = test system: Calu-3; test: as above
[7] = test system: Caco-2; test: as above
[8] = test system: U2OS; test: as above
[9] = test system: Vero E6; test: relative viability EC50 (midpoint between 100% and the lowest measured viability); higher = less toxic
[10] = test system: Calu-3; test: as above
[11] = test system: Caco-2; test: as above
[12] = test system: U2OS; test: as above
[13] = test system: HepG2; test: cell viability relative to DMSO; higher = less toxic
[14] = test system: HepG2; test: drug sensitivity score (DSS) for viability; higher = more toxic; extreme values may be limits of the assay
[15] = test system: HepG2; test: relative viability EC50 (midpoint between 100% and the lowest measured viability); higher = less toxic

Compound | cell viability ([1]; 1 nM) | cell viability ([1]; 10 nM) | cell viability ([1]; 100 nM) | cell viability ([1]; 1000 nM) | cell viability ([1]; 10000 nM) | cell viability ([2]; 1 nM) | cell viability ([2]; 10 nM) | cell viability ([2]; 100 nM) | cell viability ([2]; 1000 nM) | cell viability ([2]; 10000 nM) | cell viability ([3]; 1 nM) | cell viability ([3]; 10 nM) | cell viability ([3]; 100 nM) | cell viability ([3]; 1000 nM) | cell viability ([3]; 10000 nM) | cell viability ([4]; 1 nM) | cell viability ([4]; 10 nM) | cell viability ([4]; 100 nM) | cell viability ([4]; 1000 nM) | cell viability ([4]; 10000 nM) | drug sensitivity score [5] | drug sensitivity score [6] | drug sensitivity score [7] | drug sensitivity score [8] | relative viability EC50 [9] | relative viability EC50 [10] | relative viability EC50 [11] | relative viability EC50 [12] | cell viability ([13]; 1 nM) | cell viability ([13]; 10 nM) | cell viability ([13]; 100 nM) | cell viability ([13]; 1000 nM) | cell viability ([13]; 10000 nM) | drug sensitivity score [14] | relative viability EC50 [15]
CC(=O)NC1N=C(c2ccccc2)c2ccccc2NC1=O (stereo unspecified) | 98.5% | 96.5% | 99% | 93.7% | 108% | 112% | 101% | 101% | 101% | 95.1% | 103% | 97.7% | 93.9% | 101% | 103% | 101% | 94.6% | 95.5% | 95.3% | 96.9% | 0 | 0 | 0 | 0 | > 10 µM | > 10 µM | > 10 µM | > 10 µM | – | – | – | – | – | – | –
CCCOc1ccc(Br)cc1-c1cc(-c2ccc(Cl)cc2)[nH]c1-c1ccncc1 | 95.6% | 102% | 99.7% | 98% | 85.7% | 99.6% | 96.3% | 103% | 94.2% | 103% | 95.3% | 95.3% | 93.6% | 100% | 84.8% | 104% | 106% | 104% | 97.5% | 98.6% | 0.4 | 0 | 0.2 | 0 | > 10 µM | > 10 µM | > 10 µM | > 10 µM | 104% | 97.7% | 96.1% | 101% | 65.9% | 1.5 | –
C[C@H](NC(=O)[C@@H](Cc1c[nH]c2ccccc12)NC(=O)[C@@H](N)Cc1c[nH]cn1)C(=O)N[C@@H](Cc1c[nH]c2ccccc12)C(=O)N[C@H](Cc1ccccc1)C(=O)N[C@@H](CCCCN)C(N)=O | 108% | 100% | 99.1% | 100% | 102% | 94.6% | 109% | 107% | 107% | 99.1% | 92% | 97% | 98.7% | 99.6% | 110% | – | – | – | – | – | 0 | 0 | 0 | – | > 10 µM | > 10 µM | > 10 µM | – | – | – | – | – | – | – | –
c1ccc(CNCc2ccc(CN3CCCNCCNCCCNCC3)cc2)nc1 [AMD-3465] | – | – | – | – | – | 102% | 97.5% | 94.1% | 101% | 115% | 105% | 100% | 102% | 100% | 96.2% | 102% | 99.3% | 101% | 99% | 103% | – | 0 | 0 | 0 | – | > 10 µM | > 10 µM | > 10 µM | 102% | 101% | 101% | 103% | 97.3% | 0 | > 10 µM
